# Reference: publication PMC9925730, “Controlled sequential in situ self-assembly and disassembly of a fluorogenic cisplatin prodrug for cancer theranostics” (Nature Communications, 2023)
# Several values for one entry are separate records, joined by “and”; a condition that tells them apart may be missing. Equal entries are not always repeated. Where two headings read alike, the source gives them in different places.
# Tests used:
# HeLa cells = experiment: Cytotoxicity, MTT assay; format: cell-based, human; design: key to cell viability, mean: % viability = OD / OD of untreated control
# Method: (§1) HeLa cells were seeded on flat-bottomed 96-well plates (5000 cells per well) and incubated at 37 °C overnight. Varying concentrations of P-CyPt, Pt^IVNPs or CDDP (0, 1, 2, 5, 10, 20, 30, 50, 100, and 200 μM) in DMEM medium (100 μL) were added. Cells were either incubated for 48 h, or firstly incubated with these three compounds for 2 h, washed with PBS and then incubated with refreshed blank DMEM medium for another 48 h. Then, 3-(4,5)-dimethylthiahiazo (-z-y1)−3,5-di-phenytetrazoliumromide (MTT, 50 μL, 1 mg /mL in PBS) was added into each well. The cells were kept at 37 °C for 4 h, and the solution in each well was carefully removed, followed by addition of dimethyl sulfoxide (DMSO, 150 μL). The absorbance (OD) at 490 nm in each well was acquired on the microplate reader (Tcan). The absorbance of non-treated blank cells (OD control) was used as the control. The percentage of cell viability was calculated by dividing OD to the OD control. […]
# (§2) Supplementary Table 4. The IC50 (μM) value of different Pt drugs toward HeLa, HepG2 and HEK-293T cells.a
# (§3) Compounds Condition IC50 (μM) HeLa HepG2 HEK-293T […]
# (§4) a The IC50 values were measured by the MTT assay. Values denote mean ± s.d. (n = 3 independent experiments). b Cells were incubated with varying concentrations of CDDP, P-CyPt or PtIVNPs for […]
# (§5) c Cells were incubated with varying concentrations of CDDP, P-CyPt or PtIVNPs for 2 h, and the mediums were removed, washed with PBS. Blank culture mediums were added, and the cells were kept incubation for another 48 h.
# HepG2 cells = experiment: Cytotoxicity, MTT assay; format: cell-based, human; design: key to cell viability, mean: % viability = OD / OD of untreated control
# Method: as §1, §2, §3, §4, §5
# [1] = system: supercoiled pBR322 plasmid DNA; experiment: Ability to break DNA double strand (agarose gel electrophoresis); format: biochemical; conditions: 100 μM, 37 °C, 16 h
# Method: Evaluation of the ability to break DNA double strand
# by different species of Pt compounds. (a) Agarose gel electrophoresis of supercoiled
# pBR322 plasmid DNA (10 ng/μL) after incubating with indicated conditions.
# represents the linear DNA marker ladder (500-12000 bp); Lane i: DNA; Lane ii: DNA
# + GSH (2 mM); Lane iii: DNA + CDDP (100 μM); Lane iv: DNA + CDDP (100 μM)
# + GSH (2 mM); Lane v: DNA + P-CyPt (100 μM); Lane vi: DNA + P-CyPt (100 μM)
# + GSH (2 mM), Lane vii: DNA +P-CyPt (100 μM) + ALP (500 U/L), Lane viii: DNA
# +P-CyPt (100 μM) + ALP (500 U/L) +GSH (2 mM); (b) Agarose gel electrophoresis
# of supercoiled pBR322 plasmid DNA (20 ng/μL) after incubating with varying
# concentrations of P-CyPt (0, 1, 2, 5, 10, 20, 50 and 100 μM) respectively) plus ALP
# (500 U/L), followed by incubation with GSH (2 mM) in Tris buffer at 37 °C for 16 h.
# One representative experiment out of two is shown.
# [2] = Side toxicity in s.c. HeLa tumor-bearing mice (body weight, BUN, CRE, H&E)
structure (smiles),measurement,setting,value
"[NH2][Pt]([NH2])([Cl])[Cl] [CDDP, cisplatin]","cell viability, mean","HeLa cells; Supplementary Fig. 23 (a), concentration 1 μM",94.4173
same,"cell viability, mean","HeLa cells; Supplementary Fig. 23 (a), concentration 2 μM",90.2597
same,"cell viability, mean","HeLa cells; Supplementary Fig. 23 (a), concentration 5 μM",78.7193
same,"cell viability, mean","HeLa cells; Supplementary Fig. 23 (a), concentration 10 μM",62.7353
same,"cell viability, mean","HeLa cells; Supplementary Fig. 23 (a), concentration 20 μM",41.6693
same,"cell viability, mean","HeLa cells; Supplementary Fig. 23 (a), concentration 30 μM",27.22
same,"cell viability, mean","HeLa cells; Supplementary Fig. 23 (a), concentration 50 μM",19.0133
same,"cell viability, mean","HeLa cells; Supplementary Fig. 23 (a), concentration 100 μM",10.56
same,"cell viability, mean","HeLa cells; Supplementary Fig. 23 (a), concentration 200 μM",6.51
same,IC50,"HeLa cells; Supplementary Fig. 23 (a), read-out: IC50",14.5 µM
same,"cell viability, mean","HeLa cells; Supplementary Fig. 24 (a), concentration 1 μM",98.8285
same,"cell viability, mean","HeLa cells; Supplementary Fig. 24 (a), concentration 2 μM",97.2876
same,"cell viability, mean","HeLa cells; Supplementary Fig. 24 (a), concentration 5 μM",95.6072
same,"cell viability, mean","HeLa cells; Supplementary Fig. 24 (a), concentration 10 μM",92.7687
same,"cell viability, mean","HeLa cells; Supplementary Fig. 24 (a), concentration 20 μM",89.3445
same,"cell viability, mean","HeLa cells; Supplementary Fig. 24 (a), concentration 30 μM",83.6169
same,"cell viability, mean","HeLa cells; Supplementary Fig. 24 (a), concentration 50 μM",75.0853
same,"cell viability, mean","HeLa cells; Supplementary Fig. 24 (a), concentration 100 μM",65.2268
same,"cell viability, mean","HeLa cells; Supplementary Fig. 24 (a), concentration 200 μM",49.73
same,IC50,"HeLa cells; Supplementary Fig. 24 (a), read-out: IC50",178 µM
same,IC50,"HeLa cells; incubated 2 h, then blank medium 48 h, MTT, read-out: IC50 HeLa",178 µM and > 150 µM
same,IC50,"HeLa cells; incubated 48 h, MTT, read-out: IC50 HeLa",14.5 ± 1.6 µM
same,IC50,"HepG2 cells; HepG-2, 2+48 h, individual samples, read-out: IC50-2+48h",> 200 µM
same,IC50,"HepG2 cells; HepG-2, 2+48 h, mean of 3 samples, read-out: IC50-2+48h",> 200 µM
same,"cell viability, mean","HepG2 cells; Supplementary Fig. 23 (b), concentration 1 μM",95.3204
same,"cell viability, mean","HepG2 cells; Supplementary Fig. 23 (b), concentration 2 μM",89.9797
same,"cell viability, mean","HepG2 cells; Supplementary Fig. 23 (b), concentration 5 μM",77.7747
same,"cell viability, mean","HepG2 cells; Supplementary Fig. 23 (b), concentration 10 μM",61.9896
same,"cell viability, mean","HepG2 cells; Supplementary Fig. 23 (b), concentration 20 μM",45.1643
same,"cell viability, mean","HepG2 cells; Supplementary Fig. 23 (b), concentration 30 μM",34.2775
same,"cell viability, mean","HepG2 cells; Supplementary Fig. 23 (b), concentration 50 μM",23.521
same,"cell viability, mean","HepG2 cells; Supplementary Fig. 23 (b), concentration 100 μM",12.914
same,"cell viability, mean","HepG2 cells; Supplementary Fig. 23 (b), concentration 200 μM",8.323
same,IC50,"HepG2 cells; Supplementary Fig. 23 (b), read-out: IC50",16.3 µM
same,"cell viability, mean","HepG2 cells; Supplementary Fig. 24 (b), concentration 1 μM",97.7401
same,"cell viability, mean","HepG2 cells; Supplementary Fig. 24 (b), concentration 2 μM",96.3386
same,"cell viability, mean","HepG2 cells; Supplementary Fig. 24 (b), concentration 5 μM",94.9498
same,"cell viability, mean","HepG2 cells; Supplementary Fig. 24 (b), concentration 10 μM",92.0343
same,"cell viability, mean","HepG2 cells; Supplementary Fig. 24 (b), concentration 20 μM",89.3937
same,"cell viability, mean","HepG2 cells; Supplementary Fig. 24 (b), concentration 30 μM",84.3715
same,"cell viability, mean","HepG2 cells; Supplementary Fig. 24 (b), concentration 50 μM",79.6906
same,"cell viability, mean","HepG2 cells; Supplementary Fig. 24 (b), concentration 100 μM",74.3564
same,"cell viability, mean","HepG2 cells; Supplementary Fig. 24 (b), concentration 200 μM",60.8897
same,IC50,"HepG2 cells; Supplementary Fig. 24 (b), read-out: IC50",> 200 µM
same,IC50,"HepG2 cells; incubated 2 h, then blank medium 48 h, MTT, read-out: IC50 HepG2",> 200 µM
same,IC50,"HepG2 cells; incubated 48 h, MTT, read-out: IC50 HepG2",16.3 ± 1.69 µM
same,effect on supercoiled pBR322 DNA,[1]; plus GSH (2 mM),prevent its binding with the DNA double strand
same,effect on supercoiled pBR322 DNA,[1]; without GSH,cannot obviously relax or break
same,body weight during treatment,"[2]; 2.25 mg kg^−1 Pt i.v. x5, 21 days",obviously decreased
same,increase of blood urea nitrogen (BUN) level,[2]; day 21,~ 1.6 fold
same,increase of creatinine (CRE) level,[2]; day 21,~ 1.4 fold
